Experimental data reported in patent publication US10889553B2, “Asymmetric triazole benzamide derivatives and the compositions and methods of treatment regarding the same” (NysnoBio Ireland DAC, priority 2017, dated 2021).

Assays:
[1] = system: S-HeLa stably expressing a YFP-Parkin fusion protein; assay: Mitophagy cellular assay; format: cell-based; conditions: YFP-Parkin HeLa cells, compound with 6 μM CCCP, Tomm20 negative cells (FIG. 4)
Method: The mitophagy cellular assay was performed as follows:
S-HeLa stably expressing a YFP-Parkin fusion protein were utilised in high content screening assays to assess Parkin-dependent endpoints. 4000 cells were seeded in each well of a 96 well plate (Perkin Elmer ViewPlate-96 F TC, cat. N. 6005182) and left to grow for 24 hours. Cells were then incubated with vehicle (DMSO) or increasing concentrations of compound (1, 2.5, 5, 10 μM) for 1 hour prior to adding 6 μM carbonyl cyanide m-chlorophenyl hydrazone (CCCP), each condition run in replicate of three. After 20 hours, the cells were processed for immunofluorescence.
Samples were fixed in 4% PFA for 25 minutes RT and permeabilized with PBS 0.1% Triton-X100 for 3 minutes on ice, blocked with PBS 3% BSA, 0.3% Triton-X100 for 2 hours RT, followed by overnight incubation with primary antibody at 4° C. […] 18 images were acquired for each well using the following combination of excitation/emission filters: Hoechst33342 was excited through a 350/50 nm band pass filter and fluorescence intensity was collected through a 460/30 band pass filter. YFP was excited through a 500/20 nm band pass filter and fluorescence intensity was collected through a 540/35 band pass filter. DyLight 649 was excited through a 640/30 nm band pass filter and fluorescence intensity was collected through 700/75 band pass filter. […]

5-HT2A (h) = 5-HT2A (h) (Homo sapiens, UniProt P28223); assay: Selectivity screen, radioligand displacement; format: binding; conditions: read-out: % Inhib 5-HT2A (h)
5-HT2A (h), sequence (P28223 whole entry): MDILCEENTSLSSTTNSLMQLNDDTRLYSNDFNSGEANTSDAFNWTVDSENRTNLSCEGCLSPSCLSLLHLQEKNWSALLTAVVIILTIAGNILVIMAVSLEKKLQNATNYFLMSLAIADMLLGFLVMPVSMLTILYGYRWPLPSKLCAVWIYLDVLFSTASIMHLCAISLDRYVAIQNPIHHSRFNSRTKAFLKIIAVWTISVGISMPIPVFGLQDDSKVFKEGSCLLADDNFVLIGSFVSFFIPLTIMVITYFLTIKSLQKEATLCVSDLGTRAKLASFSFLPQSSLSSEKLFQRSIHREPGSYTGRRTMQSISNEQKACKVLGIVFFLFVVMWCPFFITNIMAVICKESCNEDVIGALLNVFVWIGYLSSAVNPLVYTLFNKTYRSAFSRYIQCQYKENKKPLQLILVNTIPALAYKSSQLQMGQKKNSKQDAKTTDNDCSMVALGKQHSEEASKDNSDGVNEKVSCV
From the text: (§1) If the % inhibition is less than 50%, the test compounds is consider to have no effect.

CB2 (h) = CB2 (h) (Homo sapiens, UniProt P34972); assay: Selectivity screen, radioligand displacement; format: binding; conditions: read-out: % Inhib CB2 (h)
CB2 (h), sequence (P34972 whole entry): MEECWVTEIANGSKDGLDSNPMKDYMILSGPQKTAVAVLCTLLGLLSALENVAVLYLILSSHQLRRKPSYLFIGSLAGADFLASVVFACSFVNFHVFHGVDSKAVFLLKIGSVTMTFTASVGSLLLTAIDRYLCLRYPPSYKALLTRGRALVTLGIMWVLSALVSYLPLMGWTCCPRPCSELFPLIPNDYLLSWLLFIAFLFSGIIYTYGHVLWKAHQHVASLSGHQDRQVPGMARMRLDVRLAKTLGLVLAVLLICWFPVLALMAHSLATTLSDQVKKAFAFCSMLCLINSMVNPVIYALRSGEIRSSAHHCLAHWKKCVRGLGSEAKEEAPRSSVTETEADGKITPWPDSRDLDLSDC
From the text: as §1

CCK1 (CCKA) (h) = CCK1 (CCKA) (h) (Homo sapiens, UniProt P32238); assay: Selectivity screen, radioligand displacement; format: binding; conditions: read-out: % Inhib CCK1 (CCKA) (h)
CCK1 (CCKA) (h), sequence (P32238 whole entry): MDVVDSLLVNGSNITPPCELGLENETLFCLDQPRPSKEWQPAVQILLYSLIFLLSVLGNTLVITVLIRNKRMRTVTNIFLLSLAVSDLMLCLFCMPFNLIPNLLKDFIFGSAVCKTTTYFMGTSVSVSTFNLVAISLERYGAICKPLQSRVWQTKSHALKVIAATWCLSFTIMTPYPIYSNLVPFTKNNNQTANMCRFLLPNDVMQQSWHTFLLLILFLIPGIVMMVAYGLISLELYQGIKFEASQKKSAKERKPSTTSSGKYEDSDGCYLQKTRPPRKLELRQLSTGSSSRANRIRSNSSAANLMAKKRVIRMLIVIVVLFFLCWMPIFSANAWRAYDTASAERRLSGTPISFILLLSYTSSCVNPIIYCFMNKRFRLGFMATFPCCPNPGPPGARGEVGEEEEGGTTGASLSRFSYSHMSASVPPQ
From the text: as §1

COX1(h) = COX1(h) (Homo sapiens, UniProt P23219); assay: Selectivity screen, radioligand displacement; format: binding; conditions: read-out: % Inhib COX1(h)
COX1(h), sequence (P23219 24-599): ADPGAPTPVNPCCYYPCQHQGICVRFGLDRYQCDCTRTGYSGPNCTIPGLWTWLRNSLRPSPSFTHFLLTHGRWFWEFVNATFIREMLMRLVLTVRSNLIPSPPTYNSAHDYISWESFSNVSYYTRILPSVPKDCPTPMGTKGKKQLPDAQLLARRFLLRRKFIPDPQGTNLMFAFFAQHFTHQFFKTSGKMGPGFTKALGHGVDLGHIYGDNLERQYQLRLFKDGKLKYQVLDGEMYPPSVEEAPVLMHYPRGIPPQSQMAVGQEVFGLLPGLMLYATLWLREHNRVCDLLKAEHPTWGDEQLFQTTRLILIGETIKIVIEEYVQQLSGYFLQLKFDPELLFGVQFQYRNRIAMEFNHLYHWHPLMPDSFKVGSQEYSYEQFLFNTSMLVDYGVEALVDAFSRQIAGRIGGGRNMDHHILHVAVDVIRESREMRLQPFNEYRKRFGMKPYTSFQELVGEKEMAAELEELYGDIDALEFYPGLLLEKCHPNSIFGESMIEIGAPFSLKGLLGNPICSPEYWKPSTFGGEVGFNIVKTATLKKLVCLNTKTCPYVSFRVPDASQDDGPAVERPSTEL
From the text: as §1

KV channel = assay: Selectivity screen, radioligand displacement; format: binding; conditions: Compound 42 at 10 μM
From the text: as §1

M1 (h) = M1 (h) (Homo sapiens, UniProt P11229); assay: Selectivity screen, radioligand displacement; format: binding
M1 (h), sequence (P11229 whole entry): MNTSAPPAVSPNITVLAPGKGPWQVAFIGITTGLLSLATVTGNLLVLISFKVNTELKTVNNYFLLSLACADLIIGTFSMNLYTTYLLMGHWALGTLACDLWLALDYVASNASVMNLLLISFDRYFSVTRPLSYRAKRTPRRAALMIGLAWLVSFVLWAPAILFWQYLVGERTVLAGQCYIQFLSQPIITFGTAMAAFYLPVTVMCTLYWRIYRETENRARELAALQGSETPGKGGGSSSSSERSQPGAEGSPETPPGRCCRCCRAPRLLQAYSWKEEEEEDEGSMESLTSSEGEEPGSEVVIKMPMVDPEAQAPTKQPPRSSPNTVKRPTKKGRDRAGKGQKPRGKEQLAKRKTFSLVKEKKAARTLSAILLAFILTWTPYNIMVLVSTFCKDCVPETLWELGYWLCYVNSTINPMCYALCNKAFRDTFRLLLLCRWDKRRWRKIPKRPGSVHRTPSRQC
From the text: as §1

MAO-A = MAO-A (Rattus norvegicus, UniProt P21396); assay: Selectivity screen, radioligand displacement; format: binding; conditions: read-out: % Inhib MAO-A
MAO-A, sequence (P21396 whole entry): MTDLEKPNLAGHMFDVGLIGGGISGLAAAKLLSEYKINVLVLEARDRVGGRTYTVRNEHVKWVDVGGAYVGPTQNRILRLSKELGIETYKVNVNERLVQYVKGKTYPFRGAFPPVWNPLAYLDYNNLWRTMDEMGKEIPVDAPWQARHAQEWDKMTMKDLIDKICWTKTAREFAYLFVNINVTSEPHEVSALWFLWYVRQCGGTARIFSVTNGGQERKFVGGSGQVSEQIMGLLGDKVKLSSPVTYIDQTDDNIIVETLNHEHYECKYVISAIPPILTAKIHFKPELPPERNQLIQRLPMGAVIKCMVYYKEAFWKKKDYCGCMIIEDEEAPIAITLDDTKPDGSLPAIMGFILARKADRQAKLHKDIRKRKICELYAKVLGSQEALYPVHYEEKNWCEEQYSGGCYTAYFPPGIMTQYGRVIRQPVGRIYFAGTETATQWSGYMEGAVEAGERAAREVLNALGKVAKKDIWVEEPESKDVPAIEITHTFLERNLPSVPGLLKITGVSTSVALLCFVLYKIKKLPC
From the text: as §1

beta 1 (h) = beta 1 (h) (Homo sapiens, UniProt P08588); assay: Selectivity screen, radioligand displacement; format: binding; conditions: read-out: % Inhib beta 1 (h)
beta 1 (h), sequence (P08588 whole entry): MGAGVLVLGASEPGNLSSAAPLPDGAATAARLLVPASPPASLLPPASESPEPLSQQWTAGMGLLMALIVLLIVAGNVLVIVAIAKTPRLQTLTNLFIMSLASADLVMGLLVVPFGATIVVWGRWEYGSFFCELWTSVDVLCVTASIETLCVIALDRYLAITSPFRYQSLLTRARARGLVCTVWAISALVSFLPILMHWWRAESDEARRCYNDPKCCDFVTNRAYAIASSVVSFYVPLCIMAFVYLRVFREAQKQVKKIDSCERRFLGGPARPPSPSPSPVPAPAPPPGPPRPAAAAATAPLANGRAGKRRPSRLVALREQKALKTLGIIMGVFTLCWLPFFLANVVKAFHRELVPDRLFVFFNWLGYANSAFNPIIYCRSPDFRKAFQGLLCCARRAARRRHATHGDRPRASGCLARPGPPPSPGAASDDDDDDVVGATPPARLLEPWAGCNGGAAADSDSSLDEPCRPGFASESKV
From the text: as §1

delta (DOP) (h) = delta (DOP) (h) (Homo sapiens, UniProt P41143); assay: Selectivity screen, radioligand displacement; format: binding; conditions: read-out: % Inhib delta (DOP) (h)
delta (DOP) (h), sequence (P41143 whole entry): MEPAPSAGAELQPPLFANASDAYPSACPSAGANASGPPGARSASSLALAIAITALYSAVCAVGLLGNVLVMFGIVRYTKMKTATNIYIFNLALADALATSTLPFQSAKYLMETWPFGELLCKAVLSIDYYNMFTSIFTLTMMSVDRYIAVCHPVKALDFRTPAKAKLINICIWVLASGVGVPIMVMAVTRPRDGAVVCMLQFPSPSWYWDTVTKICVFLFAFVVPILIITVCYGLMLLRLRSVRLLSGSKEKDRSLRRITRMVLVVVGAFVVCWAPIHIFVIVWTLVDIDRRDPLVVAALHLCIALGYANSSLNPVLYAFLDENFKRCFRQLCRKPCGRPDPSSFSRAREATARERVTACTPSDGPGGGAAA
From the text: as §1

[2] = molecular target: norepinephrine transporter (h) (Homo sapiens, UniProt P23975); assay: Selectivity screen, radioligand displacement; format: binding; conditions: read-out: % Inhib norepinephrine transporter (h)
norepinephrine transporter (h), sequence (P23975 whole entry): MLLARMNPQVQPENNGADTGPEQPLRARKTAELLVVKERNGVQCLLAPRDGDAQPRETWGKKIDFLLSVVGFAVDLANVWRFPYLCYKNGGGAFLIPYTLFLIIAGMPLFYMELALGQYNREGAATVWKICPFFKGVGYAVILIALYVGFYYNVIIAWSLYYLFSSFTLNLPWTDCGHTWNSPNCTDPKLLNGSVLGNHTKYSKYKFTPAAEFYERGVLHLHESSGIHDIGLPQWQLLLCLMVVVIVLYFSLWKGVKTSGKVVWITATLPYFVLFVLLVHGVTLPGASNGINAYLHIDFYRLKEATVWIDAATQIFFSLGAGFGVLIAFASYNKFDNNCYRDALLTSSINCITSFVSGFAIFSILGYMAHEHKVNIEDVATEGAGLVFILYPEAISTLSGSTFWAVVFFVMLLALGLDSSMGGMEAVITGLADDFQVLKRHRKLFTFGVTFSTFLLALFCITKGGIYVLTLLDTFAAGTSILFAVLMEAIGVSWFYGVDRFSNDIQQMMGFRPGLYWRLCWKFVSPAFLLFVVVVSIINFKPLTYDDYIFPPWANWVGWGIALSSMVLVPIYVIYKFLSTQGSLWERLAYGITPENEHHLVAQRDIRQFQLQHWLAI
From the text: as §1

5 major CYP enzymes = assay: CYP inhibition assay (all 5 enzymes); format: in vitro ADME; conditions: 30 μM, in words
CYP2D6 = CYP2D6 (Homo sapiens, UniProt P10635); assay: CYP inhibition assay; format: in vitro ADME; conditions: read-out: % Inhibition at 30 μM CYP 2D6
CYP2D6, sequence (P10635 whole entry): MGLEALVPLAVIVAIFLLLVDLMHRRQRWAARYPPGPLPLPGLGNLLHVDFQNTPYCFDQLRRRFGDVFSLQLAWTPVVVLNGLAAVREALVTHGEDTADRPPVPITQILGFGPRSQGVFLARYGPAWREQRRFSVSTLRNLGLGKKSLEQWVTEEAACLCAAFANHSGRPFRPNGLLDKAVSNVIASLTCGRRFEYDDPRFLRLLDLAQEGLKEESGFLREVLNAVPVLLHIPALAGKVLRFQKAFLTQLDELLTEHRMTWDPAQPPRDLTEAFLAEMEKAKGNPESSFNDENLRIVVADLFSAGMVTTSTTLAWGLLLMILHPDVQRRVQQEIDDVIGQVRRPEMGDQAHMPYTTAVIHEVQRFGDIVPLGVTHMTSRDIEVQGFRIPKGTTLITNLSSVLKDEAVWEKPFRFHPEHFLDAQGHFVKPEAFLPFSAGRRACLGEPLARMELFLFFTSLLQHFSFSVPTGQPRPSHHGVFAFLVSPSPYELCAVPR

Cc1ccccc1C(=O)Nc1nc(NC(=O)c2ccccc2C)n(-c2ccc(OC(F)(F)F)cc2)n1 [Compound 42, N,N′-(1-(4-(trifluoromethoxy)phenyl)-1H-1,2,4-triazole-3,5-diyl)bis(2-methylbenzamide)]
mitophagy / removal of damaged mitochondria [1]: increases removal of damaged mictochondria | inhibition at 10 µM (5-HT2A (h)): 4% | inhibition at 10 µM (CB2 (h)): < 1% | inhibition at 10 µM (CCK1 (CCKA) (h)): < 1% | inhibition at 10 µM (COX1(h)): 19% | % Inhib KV channel (KV channel): 1% | inhibition at 10 µM (M1 (h)): 4% | inhibition at 10 µM (MAO-A): 4% | inhibition at 10 µM (beta 1 (h)): < 1% | inhibition at 10 µM (delta (DOP) (h)): 9% | inhibition at 10 µM [2]: 1% | CYP inhibition activity for the 5 major CYP enzymes (5 major CYP enzymes): no significant CYP inhibition activity | inhibition at 30 μM (CYP2D6): 6.87%
